Laboratory results from ChEMBL document CHEMBL4219200, “Beta-sitosterol and its derivatives repress lipopolysaccharide/d-galactosamine-induced acute hepatic injury by inhibiting the oxidation and inflammation in mice” (Bioorg Med Chem Lett, 2018).
Calls of active or inactive are those of the source. The calls are words filed in the database; no cut-off is given here.

What was measured:
[1] = Solubility of the compound in water assessed as volume of solvent required to dissolve 1 g of compound; format: physicochemical; conditions: buffer
Mus musculus [2] = test: Hepatoprotective activity against lipopolysaccharide/D-galactosamine-induced acute hepatic injury in mouse assessed as inhibition of LPS/GalN-induced increase in IL-6 level in serum at 12.5 to 50 mg/kg; format: functional, organism-based
L02 = test: Cytotoxicity against human L02 cells up to 10 uM by MTT assay; format: cell-based
Mus musculus [3] = test: Hepatoprotective activity against lipopolysaccharide/D-galactosamine-induced acute hepatic injury in mouse assessed as increase in survival rate at 50 mg/kg up to 24 hrs; format: functional, organism-based
Mus musculus [4] = test: Hepatoprotective activity against lipopolysaccharide/D-galactosamine-induced acute hepatic injury in mouse assessed as inhibition of liver cell necrosis at 50 mg/kg up to 24 hrs by microscopic method; format: functional, organism-based
Mus musculus [5] = test: Hepatoprotective activity against lipopolysaccharide/D-galactosamine-induced acute hepatic injury in mouse assessed as restoration of hepatic lobular structure at 50 mg/kg up to 24 hrs by microscopic method; format: functional, organism-based
Mus musculus [6] = test: Hepatoprotective activity against lipopolysaccharide/D-galactosamine-induced acute hepatic injury in mouse assessed as reduction in serum AST level at 50 mg/kg; format: functional, organism-based
Mus musculus [7] = test: Hepatoprotective activity against lipopolysaccharide/D-galactosamine-induced acute hepatic injury in mouse assessed as reduction in serum ALT level at 50 mg/kg; format: functional, organism-based
Mus musculus [8] = test: Hepatoprotective activity against lipopolysaccharide/D-galactosamine-induced acute hepatic injury in mouse assessed as inhibition of LPS/GalN-induced increase in MDA level in liver at 50 mg/kg; format: functional, organism-based
Mus musculus [9] = test: Hepatoprotective activity against lipopolysaccharide/D-galactosamine-induced acute hepatic injury in mouse assessed as inhibition of LPS/GalN-induced decrease in GSH level in liver at 50 mg/kg; format: functional, organism-based
Mus musculus [10] = test: Hepatoprotective activity against lipopolysaccharide/D-galactosamine-induced acute hepatic injury in mouse assessed as inhibition of LPS/GalN-induced decrease in SOD level in liver at 50 mg/kg; format: functional, organism-based
Mus musculus [11] = test: Hepatoprotective activity against lipopolysaccharide/D-galactosamine-induced acute hepatic injury in mouse assessed as inhibition of LPS/GalN-induced decrease in CAT level in liver at 50 mg/kg; format: functional, organism-based
Mus musculus [12] = test: Hepatoprotective activity against lipopolysaccharide/D-galactosamine-induced acute hepatic injury in mouse assessed as inhibition of LPS/GalN-induced increase in TNFalpha level in liver at 12.5 to 50 mg/kg; format: functional, organism-based
Mus musculus [13] = test: Hepatoprotective activity against lipopolysaccharide/D-galactosamine-induced acute hepatic injury in mouse assessed as inhibition of LPS/GalN-induced increase in TNFalpha level in serum at 12.5 to 50 mg/kg; format: functional, organism-based
Mus musculus [14] = test: Hepatoprotective activity against lipopolysaccharide/D-galactosamine-induced acute hepatic injury in mouse assessed as inhibition of LPS/GalN-induced increase in IL-1beta level in liver at 12.5 to 50 mg/kg; format: functional, organism-based
Mus musculus [15] = test: Hepatoprotective activity against lipopolysaccharide/D-galactosamine-induced acute hepatic injury in mouse assessed as inhibition of LPS/GalN-induced increase in IL-1beta level in serum at 12.5 to 50 mg/kg; format: functional, organism-based
Mus musculus [16] = test: Hepatoprotective activity against lipopolysaccharide/D-galactosamine-induced acute hepatic injury in mouse assessed as inhibition of LPS/GalN-induced increase in IL-6 level in liver at 12.5 to 50 mg/kg; format: functional, organism-based
Mus musculus [17] = test: Hepatoprotective activity against lipopolysaccharide/D-galactosamine-induced acute hepatic injury in mouse assessed as decrease in TLR4 protein level in liver at 12.5 to 50 mg/kg by Western blot analysis; format: functional, organism-based
Mus musculus [18] = test: Hepatoprotective activity against lipopolysaccharide/D-galactosamine-induced acute hepatic injury in mouse assessed as decrease in NF-kB protein level in liver at 12.5 to 50 mg/kg by Western blot analysis; format: functional, organism-based
Mus musculus [19] = test: Hepatoprotective activity against lipopolysaccharide/D-galactosamine-induced acute hepatic injury in mouse assessed as increase in IkB protein level in liver at 50 mg/kg by Western blot analysis; format: functional, organism-based
Mus musculus [20] = test: Hepatoprotective activity against lipopolysaccharide/D-galactosamine-induced acute hepatic injury in mouse assessed as increase in Nrf2 protein level in liver at 50 mg/kg by Western blot analysis; format: functional, organism-based
Mus musculus [21] = test: Hepatoprotective activity against lipopolysaccharide/D-galactosamine-induced acute hepatic injury in mouse assessed as increase in HO1 protein level in liver at 50 mg/kg by Western blot analysis; format: functional, organism-based
Mus musculus [22] = test: Hepatoprotective activity against lipopolysaccharide/D-galactosamine-induced acute hepatic injury in mouse assessed as inhibition of TNFalpha mRNA level in liver at 12.5 to 50 mg/kg by RT-PCR analysis; format: functional, organism-based
Mus musculus [23] = test: Hepatoprotective activity against lipopolysaccharide/D-galactosamine-induced acute hepatic injury in mouse assessed as inhibition of Il-1beta mRNA level in liver at 12.5 to 50 mg/kg by RT-PCR analysis; format: functional, organism-based
Mus musculus [24] = test: Hepatoprotective activity against lipopolysaccharide/D-galactosamine-induced acute hepatic injury in mouse assessed as inhibition of NFkB mRNA level in liver at 12.5 to 50 mg/kg by RT-PCR analysis; format: functional, organism-based
Mus musculus [25] = test: Hepatoprotective activity against lipopolysaccharide/D-galactosamine-induced acute hepatic injury in mouse assessed as increase in Nrf2 mRNA level in liver at 12.5 to 50 mg/kg by RT-PCR analysis; format: functional, organism-based

In the case of CC[C@H](CC[C@@H](C)[C@H]1CC[C@H]2[C@@H]3CC=C4C[C@@H](OC(=O)c5ccc6ccccc6c5)CC[C@]4(C)[C@H]3CC[C@]12C)C(C)C, the solubility [1] is reported as 1000 to 10000 mL, the inhibition (Mus musculus [2]) is reported as “Active” and the Activity (L02) is reported as “Non-Toxic”. For the same compound, the Activity (Mus musculus [3]) was “Active”, the inhibition (Mus musculus [4]) was “Active” and the Activity (Mus musculus [5]) was “Active”. The Activity (Mus musculus [6]) was “Active”, the Activity (Mus musculus [7]) was “Active” and the inhibition (Mus musculus [8]) was “Active”. The inhibition (Mus musculus [9]) was “Active”, the inhibition (Mus musculus [10]) was “Active” and the inhibition (Mus musculus [11]) was “Active”. For the same compound, the inhibition (Mus musculus [12]) was “Active”, the inhibition (Mus musculus [13]) was “Active” and the inhibition (Mus musculus [14]) was “Active”. The inhibition (Mus musculus [15]) was “Active”, the inhibition (Mus musculus [16]) was “Active” and the Activity (Mus musculus [17]) was “Active”. The Activity (Mus musculus [18]) was “Active”, the Activity (Mus musculus [19]) was “Active” and the Activity (Mus musculus [20]) was “Active”. For the same compound, the Activity (Mus musculus [21]) was “Active”, the inhibition (Mus musculus [22]) was “Active” and the inhibition (Mus musculus [23]) was “Active”. The inhibition (Mus musculus [24]) was “Active” and the Activity (Mus musculus [25]) was “Active”.

For CC[C@H](CC[C@@H](C)[C@H]1CC[C@H]2[C@@H]3CC=C4C[C@@H](O)CC[C@]4(C)[C@H]3CC[C@]12C)C(C)C [BETA-SITOSTEROL], the solubility [1] was “<= 10000 ml” and the Activity (Mus musculus [3]) was “Active”.

In the case of CC[C@H](CC[C@@H](C)[C@H]1CC[C@H]2[C@@H]3CC=C4C[C@@H](OC(=O)c5ccccc5O)CC[C@]4(C)[C@H]3CC[C@]12C)C(C)C, the solubility [1] is reported as 1000 to 10000 mL, the Activity (L02) is reported as “Non-Toxic” and the Activity (Mus musculus [3]) is reported as “Active”.

In the case of CC[C@H](CC[C@@H](C)[C@H]1CC[C@H]2[C@@H]3CC=C4C[C@@H](OC(=O)c5ccco5)CC[C@]4(C)[C@H]3CC[C@]12C)C(C)C, the solubility [1] is reported as 1000 to 10000 mL, the Activity (L02) is reported as “Non-Toxic” and the Activity (Mus musculus [3]) is reported as “Active”.

With C/C=C/C=C/C(=O)O[C@H]1CC[C@@]2(C)C(=CC[C@H]3[C@@H]4CC[C@H]([C@H](C)CC[C@@H](CC)C(C)C)[C@@]4(C)CC[C@@H]32)C1 the solubility [1] was 1000 to 10000 mL, the Activity (L02) was “Non-Toxic” and the Activity (Mus musculus [3]) was “Active”.
